Source: patent US9211310B2, “Use of a Chinese medicine composition in preparing medicaments for treating secondary prevention of myocardial infarction” (TASLY PHARMACEUTICAL GROUP CO., LTD, priority 2010, dated 2015)

System: patients after acute myocardial infarction
Assay: Life quality, Seattle Angina Questionnaire (SAQ), same clinical trial
Type: in vivo, human
From the text: 3508 patients who were in accordance with the diagnostic standards of AMI for 28 days to 2 years and differentiated as Qi deficiency and blood stagnation syndrome by TCM were studied. 0.5 g Chinese medicine composition prepared by the method of EXAMPLE 1 (Coded as QSYQ) was administrated half an hour after meal, 3 times per day.
There were 19 questions in the Seattle angina questionnaire (SAQ), including 5 parts: physical limitation (PL), anginal stability (AS), anginal frequency (AF), treatment satisfaction (TS) and disease perception (DP). After being given necessary explanation by doctors, the questions were answered independently by patients.
They included the overall survival time, angina pectoris score, TCM symptom score and life quality score, where angina pectoris score, TCM symptom score and life quality score were evaluated at randomization, in 1st, 3rd, 6th, 9th, 12th month after treatment and 18th month after follow-up.
All evaluation results of SAQ were described during the period of observation, and Wilcoxon rank sum test was used for inter-group comparison.
The evaluation results in the SAQ were depicted in different observations, and inter-group comparison was tested by Wilcoxon Rank-sum test.

What does the source list for `CC(=O)Oc1ccccc1C(=O)O` [Control group, aspirine]?
SAQ Question 1-9: Other reasons, % of cases (Baseline, FAS): (5.84%); SAQ Question 1-9: Other reasons, cases (Baseline, FAS): 99; SAQ Question 1-9: Severely limited, % of cases (Baseline, FAS): (47.34%); SAQ Question 1-9: Severely limited, cases (Baseline, FAS): 802; SAQ Question 1-9: Slightly limited, % of cases (Baseline, FAS): (8.56%); SAQ Question 1-9: Slightly limited, cases (Baseline, FAS): 145; SAQ 2nd question: Clearly increased, % of cases (Baseline, PP): (3.09%); SAQ 2nd question: Clearly increased, cases (Baseline, PP): 46; SAQ 2nd question: Clearly reduced, % of cases (Baseline, PP): (12.16%); SAQ 2nd question: Clearly reduced, cases (Baseline, PP): 181; SAQ 2nd question: Same, % of cases (Baseline, PP): (63.00%); SAQ 2nd question: Same, cases (Baseline, PP): 938; SAQ 2nd question: Slightly increased, % of cases (Baseline, PP): (6.72%); SAQ 2nd question: Slightly increased, cases (Baseline, PP): 100; SAQ 2nd question: Slightly reduced, % of cases (Baseline, PP): (15.04%); SAQ 2nd question: Slightly reduced, cases (Baseline, PP): 224; SAQ 3rd question: 1-2 times per week, % of cases (Baseline, PP): (15.04%); SAQ 3rd question: 1-2 times per week, cases (Baseline, PP): 224; SAQ 3rd question: 1-3 times per day, % of cases (Baseline, PP): (6.72%); SAQ 3rd question: 1-3 times per day, cases (Baseline, PP): 100; SAQ 3rd question: <1 time per week, % of cases (Baseline, PP): (12.16%); SAQ 3rd question: <1 time per week, cases (Baseline, PP): 181; SAQ 3rd question: No onset, % of cases (Baseline, PP): (0.00%); SAQ 3rd question: No onset, cases (Baseline, PP): 0; SAQ 3rd question: ≧3 times per week, % of cases (Baseline, PP): (63.00%); SAQ 3rd question: ≧3 times per week, cases (Baseline, PP): 938; SAQ 3rd question: ≧4 times per day, % of cases (Baseline, PP): (3.09%); SAQ 3rd question: ≧4 times per day, cases (Baseline, PP): 46; SAQ Question 1-3: Mildly limited, number of patients (Baseline, PP): 135; SAQ Question 1-3: Mildly limited, percent of patients (Baseline, PP): (9.04%); SAQ Question 1-3: Moderately limited, number of patients (Baseline, PP): 44; SAQ Question 1-3: Moderately limited, percent of patients (Baseline, PP): (2.95%); SAQ Question 1-3: Not limited, number of patients (Baseline, PP): 985; SAQ Question 1-3: Not limited, percent of patients (Baseline, PP): (65.97%); SAQ Question 1-3: Other reasons, number of patients (Baseline, PP): 10; SAQ Question 1-3: Other reasons, percent of patients (Baseline, PP): (0.67%); SAQ Question 1-3: Severely limited, number of patients (Baseline, PP): 12; SAQ Question 1-3: Severely limited, percent of patients (Baseline, PP): (0.80%); SAQ Question 1-3: Slightly limited, number of patients (Baseline, PP): 307; SAQ Question 1-3: Slightly limited, percent of patients (Baseline, PP): (20.56%); SAQ Question 1-4: Mildly limited, number of patients (Baseline, PP): 347; SAQ Question 1-4: Mildly limited, percent of patients (Baseline, PP): (23.30%); SAQ Question 1-4: Moderately limited, number of patients (Baseline, PP): 185; SAQ Question 1-4: Moderately limited, percent of patients (Baseline, PP): (12.42%); SAQ Question 1-4: Not limited, number of patients (Baseline, PP): 414; SAQ Question 1-4: Not limited, percent of patients (Baseline, PP): (27.80%); SAQ Question 1-4: Other reasons, number of patients (Baseline, PP): 14; SAQ Question 1-4: Other reasons, percent of patients (Baseline, PP): (0.94%); SAQ Question 1-4: Severely limited, number of patients (Baseline, PP): 51; SAQ Question 1-4: Severely limited, percent of patients (Baseline, PP): (3.43%); SAQ Question 1-4: Slightly limited, number of patients (Baseline, PP): 478; SAQ Question 1-4: Slightly limited, percent of patients (Baseline, PP): (32.10%); SAQ Question 1-5: Mildly limited, number of patients (Baseline, PP): 309; SAQ Question 1-5: Mildly limited, percent of patients (Baseline, PP): (20.72%); SAQ Question 1-5: Moderately limited, number of patients (Baseline, PP): 210; SAQ Question 1-5: Moderately limited, percent of patients (Baseline, PP): (14.08%); SAQ Question 1-5: Not limited, number of patients (Baseline, PP): 473; SAQ Question 1-5: Not limited, percent of patients (Baseline, PP): (31.72%); SAQ Question 1-5: Other reasons, number of patients (Baseline, PP): 12; SAQ Question 1-5: Other reasons, percent of patients (Baseline, PP): (0.80%); SAQ Question 1-5: Severely limited, number of patients (Baseline, PP): 46; SAQ Question 1-5: Severely limited, percent of patients (Baseline, PP): (3.09%); SAQ Question 1-5: Slightly limited, number of patients (Baseline, PP): 441; SAQ Question 1-5: Slightly limited, percent of patients (Baseline, PP): (29.58%); SAQ Question 1-9: Mildly limited, % of cases (Baseline, PP): (14.67%); SAQ Question 1-9: Mildly limited, cases (Baseline, PP): 213; SAQ Question 1-9: Moderately limited, % of cases (Baseline, PP): (20.73%); SAQ Question 1-9: Moderately limited, cases (Baseline, PP): 301; SAQ Question 1-9: Not limited, % of cases (Baseline, PP): (2.27%); SAQ Question 1-9: Not limited, cases (Baseline, PP): 33; SAQ Question 1-9: Other reasons, % of cases (Baseline, PP): (6.34%); SAQ Question 1-9: Other reasons, cases (Baseline, PP): 92; SAQ Question 1-9: Severely limited, % of cases (Baseline, PP): (48.55%); SAQ Question 1-9: Severely limited, cases (Baseline, PP): 705; SAQ Question 1-9: Slightly limited, % of cases (Baseline, PP): (7.44%); SAQ Question 1-9: Slightly limited, cases (Baseline, PP): 108; 8th question: Dissatisfied, patients (%) (FAS, 1 month after treatment): (0.34%)
